The record followed here is ChEMBL document CHEMBL5113520, “From a Cone Snail Toxin to a Competitive MC4R Antagonist” (J Med Chem, 2022).

Where a SMILES comes first, the peptide text is derived from it. Bridges are numbered along the chain shown (N, C = ends). The star is where a group is joined. Carbamoyl = NC(=O)*

Assay type in all cases: cell-based
For one assay, the target named is Melanocortin receptor 4 (Homo sapiens, UniProt P32245). Kind of assay: Displacement of [125I]-NDP-alpha-MSH from human MC4R expressed in CHO cells by Topcount beta counter analysis. For orientation: Displacement assays read how much labelled ligand stays bound in the presence of the test substance.
Sequence of Melanocortin receptor 4 (P32245 whole entry): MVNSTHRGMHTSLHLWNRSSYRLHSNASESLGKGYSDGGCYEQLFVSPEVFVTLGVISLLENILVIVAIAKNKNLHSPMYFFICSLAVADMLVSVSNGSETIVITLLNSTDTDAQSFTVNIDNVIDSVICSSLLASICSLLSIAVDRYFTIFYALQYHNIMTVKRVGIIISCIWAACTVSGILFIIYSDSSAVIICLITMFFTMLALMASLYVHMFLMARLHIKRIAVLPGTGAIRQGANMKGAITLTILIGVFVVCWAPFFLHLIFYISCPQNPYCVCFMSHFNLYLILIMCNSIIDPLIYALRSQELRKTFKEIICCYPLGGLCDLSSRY
Assay [1] concerns the target Melanocyte-stimulating hormone receptor (Homo sapiens, UniProt Q01726). Nature of the assay: Displacement of [125I]-NDP-alpha-MSH from human MC1R expressed in CHO cells by Topcount beta counter analysis.
A further assay addresses Melanocortin receptor 5 (Homo sapiens, UniProt P33032). Nature of the assay: Displacement of [125I]-NDP-alpha-MSH from human MC5R expressed in CHO cells by Topcount beta counter analysis.
A further assay has as its target Melanocortin receptor 3 (Homo sapiens, UniProt P41968). Kind of assay: Displacement of [125I]-NDP-alpha-MSH from human MC3R expressed in HEK293 cells by Topcount beta counter analysis.

Sequence of Melanocortin receptor 5 (P33032 whole entry): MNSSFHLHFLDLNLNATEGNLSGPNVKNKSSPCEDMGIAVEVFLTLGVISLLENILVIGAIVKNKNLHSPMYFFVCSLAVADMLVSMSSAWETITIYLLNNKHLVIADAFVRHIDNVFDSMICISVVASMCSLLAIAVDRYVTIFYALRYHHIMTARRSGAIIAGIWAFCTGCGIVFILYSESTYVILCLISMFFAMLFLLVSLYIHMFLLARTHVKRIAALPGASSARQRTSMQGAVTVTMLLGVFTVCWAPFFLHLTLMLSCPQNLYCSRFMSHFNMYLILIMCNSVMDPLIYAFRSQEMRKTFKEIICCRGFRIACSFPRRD
Sequence of Melanocortin receptor 3 (P41968 whole entry): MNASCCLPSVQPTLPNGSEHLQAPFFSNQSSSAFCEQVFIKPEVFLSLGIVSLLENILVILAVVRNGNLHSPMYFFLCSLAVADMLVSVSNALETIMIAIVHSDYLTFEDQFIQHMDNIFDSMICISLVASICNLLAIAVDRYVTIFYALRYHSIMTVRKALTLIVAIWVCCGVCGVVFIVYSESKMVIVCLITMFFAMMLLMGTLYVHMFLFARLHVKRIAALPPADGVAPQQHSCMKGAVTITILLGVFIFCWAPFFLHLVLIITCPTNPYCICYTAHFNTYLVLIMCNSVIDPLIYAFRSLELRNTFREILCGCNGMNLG
Sequence of Melanocyte-stimulating hormone receptor (Q01726 whole entry): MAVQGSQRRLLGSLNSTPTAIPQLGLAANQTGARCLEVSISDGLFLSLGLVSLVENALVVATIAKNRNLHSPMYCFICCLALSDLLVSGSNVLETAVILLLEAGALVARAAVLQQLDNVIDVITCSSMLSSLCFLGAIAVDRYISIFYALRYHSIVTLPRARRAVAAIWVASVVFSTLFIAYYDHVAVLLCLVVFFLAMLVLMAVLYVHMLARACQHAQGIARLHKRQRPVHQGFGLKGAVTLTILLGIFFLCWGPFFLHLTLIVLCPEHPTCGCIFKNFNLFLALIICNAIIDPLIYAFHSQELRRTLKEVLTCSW

For `CC(C)C[C@H](NC(=O)[C@H](CCCCN)NC(=O)[C@H](Cc1ccccc1)NC(=O)[C@H](CCC(N)=O)NC(=O)[C@@H]1CSSC[C@H](NC(=O)[C@@H](Cc2ccc(O)cc2)NC(=O)[C@H](Cc2c[nH]cn2)NC(=O)[C@H](Cc2ccccc2)NC(=O)[C@@H](N)CC(C)C)C(=O)N[C@@H](CCC(N)=O)C(=O)N[C@@H](CCCCN)C(=O)N[C@@H](CCC(N)=O)C(=O)N[C@@H](CCCCN)C(=O)N2CCC[C@H]2C(=O)N2CCC[C@H]2C(=O)NCC(=O)N[C@@H](Cc2ccccc2)C(=O)N[C@@H](CCCCN)C(=O)NCC(=O)N[C@@H](CCCCN)C(=O)N[C@@H](Cc2ccccc2)C(=O)N1)C(=O)N[C@@H](CCCNC(=N)N)C(=O)N1CCC[C@H]1C(=O)N1CCC[C@H]1C(=O)O`, the Ki at Melanocortin receptor 4 (read-out: pKi (converted)) was 6.92 nM; in assay [1] (read-out: pKi (converted)), 85.1 nM; at Melanocortin receptor 5 (read-out: pKi (converted)), 25.7 nM; at Melanocortin receptor 3 (read-out: pKi (converted)), 30.9 nM.
In the case of `CC(C)C[C@H](NC(=O)[C@H](CCC(=O)O)NC(=O)[C@H](Cc1ccccc1)NC(=O)[C@H](CCC(N)=O)NC(=O)[C@H](CCC(N)=O)N1C(=O)[C@@H](NC(=O)[C@H](CCCCN)NC(=O)CNC(=O)[C@H](CCCCN)NC(=O)[C@H](Cc2ccccc2)NC(=O)CNC(=O)[C@@H]2CCCN2C(=O)[C@@H]2CCCN2C(=O)[C@H](CCCCN)NC(=O)[C@H](CCC(N)=O)NC(=O)[C@H](CCCCN)NC(=O)[C@H](CCC(N)=O)NC(=O)[C@H](CCC(N)=O)NC(=O)[C@H](Cc2ccc(O)cc2)NC(=O)[C@H](Cc2c[nH]cn2)NC(=O)[C@H](Cc2ccccc2)NC(=O)[C@@H](N)CC(C)C)Cc2ccccc21)C(=O)N[C@@H](CCCNC(=N)N)C(=O)N1CCC[C@H]1C(=O)N1CCC[C@H]1C(=O)O`, the results for the Ki at Melanocortin receptor 4 (read-out: Ki) and at Melanocortin receptor 4 (read-out: pKi (converted)) were 91 nM and 89.1 nM, respectively.
In the case of `CC(C)C[C@H](NC(=O)[C@H](CCCCN)NC(=O)[C@H](Cc1ccccc1)NC(=O)[C@H](CCC(N)=O)NC(=O)[C@@H]1CSSC[C@H](NC(=O)[C@H](CCC(N)=O)NC(=O)[C@H](C)NC(=O)[C@H](CCC(N)=O)NC(=O)[C@H](C)NC(=O)[C@H](Cc2ccc(O)cc2)NC(=O)[C@H](Cc2c[nH]cn2)NC(=O)[C@H](Cc2ccccc2)NC(=O)[C@@H](N)CC(C)C)C(=O)N2CCC[C@H]2C(=O)N2CCC[C@H]2C(=O)NCC(=O)N[C@@H](Cc2ccccc2)C(=O)N[C@@H](CCCCN)C(=O)NCC(=O)N[C@@H](CCCCN)C(=O)N[C@@H](Cc2ccccc2)C(=O)N1)C(=O)N[C@@H](CCCNC(=N)N)C(=O)N1CCC[C@H]1C(=O)N1CCC[C@H]1C(=O)O` (H-LFHYAQAQCPPGFKGKFCQFKLRPP-OH; disulfide 9-18), the Ki on Melanocortin receptor 4 (read-out: pKi (converted)) is 245 nM.
Turning to `CC(C)C[C@H](NC(=O)[C@H](CCCCN)NC(=O)[C@H](Cc1ccccc1)NC(=O)[C@H](CCC(N)=O)NC(=O)[C@@H]1CSSC[C@H](NC(=O)[C@H](CCC(N)=O)NC(=O)[C@H](C)NC(=O)[C@H](Cc2ccc(O)cc2)NC(=O)[C@H](Cc2c[nH]cn2)NC(=O)[C@H](Cc2ccccc2)NC(=O)[C@@H](N)CC(C)C)C(=O)N[C@@H](CCC(N)=O)C(=O)N[C@@H](C)C(=O)N2CCC[C@H]2C(=O)N2CCC[C@H]2C(=O)NCC(=O)N[C@@H](Cc2ccccc2)C(=O)N[C@@H](CCCCN)C(=O)NCC(=O)N[C@@H](CCCCN)C(=O)N[C@@H](Cc2ccccc2)C(=O)N1)C(=O)N[C@@H](CCCNC(=N)N)C(=O)N1CCC[C@H]1C(=O)N1CCC[C@H]1C(=O)O` (H-LFHYAQCQAPPGFKGKFCQFKLRPP-OH; disulfide 7-18), the Ki on Melanocortin receptor 4 (read-out: pKi (converted)) was 245 nM.
For `CC(C)C[C@H](NC(=O)[C@H](CCCCN)NC(=O)[C@H](Cc1ccccc1)NC(=O)[C@H](CCC(N)=O)NC(=O)[C@H](CSC(N)=O)NC(=O)[C@H](Cc1ccccc1)NC(=O)[C@H](CCCCN)NC(=O)CNC(=O)[C@H](CCCCN)NC(=O)[C@H](Cc1ccccc1)NC(=O)CNC(=O)[C@@H]1CCCN1C(=O)[C@@H]1CCCN1C(=O)[C@H](CCCCN)NC(=O)[C@H](CCC(N)=O)NC(=O)[C@H](CCCCN)NC(=O)[C@H](CCC(N)=O)NC(=O)[C@H](CSC(N)=O)NC(=O)[C@H](Cc1ccc(O)cc1)NC(=O)[C@H](Cc1cnc[nH]1)NC(=O)[C@H](Cc1ccccc1)NC(=O)[C@@H](N)CC(C)C)C(=O)N[C@@H](CCCNC(=N)N)C(=O)N1CCC[C@H]1C(=O)N1CCC[C@H]1C(=O)O` (H-LFHYC(Carbamoyl)QKQKPPGFKGKFC(Carbamoyl)QFKLRPP-OH), the Ki at Melanocortin receptor 4 (read-out: pKi (converted)) is 12.6 nM; in assay [1] (read-out: pKi (converted)), 110 nM; on Melanocortin receptor 5 (read-out: pKi (converted)), 135 nM; at Melanocortin receptor 3 (read-out: pKi (converted)), 37.2 nM.
In the case of `CC(C)C[C@H](NC(=O)[C@H](CCCCN)NC(=O)[C@H](Cc1ccccc1)NC(=O)[C@H](CCC(N)=O)NC(=O)[C@@H]1CSSC[C@H](NC(=O)[C@H](Cc2ccc(O)cc2)NC(=O)[C@H](Cc2c[nH]cn2)NC(=O)[C@H](Cc2ccccc2)NC(=O)[C@@H](N)CC(C)C)C(=O)N[C@@H](CCC(N)=O)C(=O)N[C@@H](C)C(=O)N[C@@H](CCC(N)=O)C(=O)N[C@@H](C)C(=O)N2CCC[C@H]2C(=O)N2CCC[C@H]2C(=O)NCC(=O)N[C@@H](Cc2ccccc2)C(=O)N[C@@H](CCCCN)C(=O)NCC(=O)N[C@@H](CCCCN)C(=O)N[C@@H](Cc2ccccc2)C(=O)N1)C(=O)N[C@@H](CCCNC(=N)N)C(=O)N1CCC[C@H]1C(=O)N1CCC[C@H]1C(=O)O` (H-LFHYCQAQAPPGFKGKFCQFKLRPP-OH; disulfide 5-18), the Ki at Melanocortin receptor 4 (read-out: pKi (converted)) is 117 nM; in assay [1] (read-out: pKi (converted)), 912 nM; on Melanocortin receptor 5 (read-out: pKi (converted)), 195 nM; on Melanocortin receptor 3 (read-out: pKi (converted)), 170 nM.
With `CC(C)C[C@H](NC(=O)[C@H](CCCCN)NC(=O)[C@H](Cc1ccccc1)NC(=O)[C@H](CCC(N)=O)NC(=O)[C@@H]1CSSC[C@H](NC(=O)[C@H](CCC(N)=O)NC(=O)[C@@H]2CSSC[C@H](NC(=O)[C@H](Cc3ccc(O)cc3)NC(=O)[C@H](Cc3c[nH]cn3)NC(=O)[C@H](Cc3ccccc3)NC(=O)[C@@H](N)CC(C)C)C(=O)N[C@@H](CCC(N)=O)C(=O)N2)C(=O)N2CCC[C@H]2C(=O)N2CCC[C@H]2C(=O)NCC(=O)N[C@@H](Cc2ccccc2)C(=O)N[C@@H](CCCCN)C(=O)NCC(=O)N[C@@H](CCCCN)C(=O)N[C@@H](Cc2ccccc2)C(=O)N1)C(=O)N[C@@H](CCCNC(=N)N)C(=O)N1CCC[C@H]1C(=O)N1CCC[C@H]1C(=O)O` (H-LFHYCQCQCPPGFKGKFCQFKLRPP-OH; disulfide 5-7, 9-18), the Ki was 45 nM on Melanocortin receptor 4 (read-out: Ki); 41.7 nM at Melanocortin receptor 4 (read-out: pKi (converted)); 530 nM in assay [1] (read-out: Ki); 513 nM in assay [1] (read-out: pKi (converted)); 30 nM at Melanocortin receptor 5 (read-out: Ki); 28.8 nM on Melanocortin receptor 5 (read-out: pKi (converted)). The Ki at Melanocortin receptor 3 (read-out: Ki) is 83 nM; at Melanocortin receptor 3 (read-out: pKi (converted)) it was 69.2 nM.
`CC(C)C[C@H](NC(=O)[C@H](CCCCN)NC(=O)[C@H](Cc1ccccc1)NC(=O)[C@H](CCC(N)=O)NC(=O)[C@@H]1CSSC[C@@H]2NC(=O)[C@H](CCC(N)=O)NC(=O)[C@@H](NC(=O)[C@H](Cc3ccc(O)cc3)NC(=O)[C@H](Cc3c[nH]cn3)NC(=O)[C@H](Cc3ccccc3)NC(=O)[C@@H](N)CC(C)C)CSSC[C@H](NC(=O)[C@H](CCC(N)=O)NC2=O)C(=O)N2CCC[C@H]2C(=O)N2CCC[C@H]2C(=O)NCC(=O)N[C@@H](Cc2ccccc2)C(=O)N[C@@H](CCCCN)C(=O)NCC(=O)N[C@@H](CCCCN)C(=O)N[C@@H](Cc2ccccc2)C(=O)N1)C(=O)N[C@@H](CCCNC(=N)N)C(=O)N1CCC[C@H]1C(=O)N1CCC[C@H]1C(=O)O` (H-LFHYCQCQCPPGFKGKFCQFKLRPP-OH; disulfide 5-9, 7-18): the Ki at Melanocortin receptor 4 (read-out: Ki) was 49 nM; on Melanocortin receptor 4 (read-out: pKi (converted)), 44.7 nM; in assay [1] (read-out: Ki), 549 nM; in assay [1] (read-out: pKi (converted)), 617 nM; at Melanocortin receptor 5 (read-out: Ki) it was 53 nM; at Melanocortin receptor 5 (read-out: pKi (converted)), 33.9 nM. Moreover, the Ki on Melanocortin receptor 3 (read-out: Ki) came out at 90 nM.
With Ac-LFHYQQKQKPPGFKGKFQQFKLRPP-OH, the Ki at Melanocortin receptor 4 (read-out: Ki) is 138 nM; at Melanocortin receptor 4 (read-out: pKi (converted)), 135 nM.
With H-AFHYQQKQKPPGFKGKFQQFKLRPP-OH, the results for the Ki at Melanocortin receptor 4 (read-out: Ki) and on Melanocortin receptor 4 (read-out: pKi (converted)) were 125 nM and 123 nM, respectively.
Turning to H-FHYQQKQKPPGFKGKFQQFKLRPP-OH, the Ki is 334 nM on Melanocortin receptor 4 (read-out: Ki) and 288 nM on Melanocortin receptor 4 (read-out: pKi (converted)).
For H-HYQQKQKPPGFKGKFQQFKLRPP-OH the same measures were 2200 nM and 2040 nM.
Turning to H-LAHYQQKQKPPGFKGKFQQFKLRPP-OH, the Ki at Melanocortin receptor 4 (read-out: Ki) was determined as 236 nM.
Same read-out and setting: as for H-LFHAQQKQKPPGFKGKFQQFKLRPP-OH, the figure is 111 nM.
H-LFHYQQKQKPPGFAGKFQQFKLRPP-OH: the Ki at Melanocortin receptor 4 (read-out: Ki) stood at 54 nM.
Regarding H-LFHYQQKQKPPGFEGKFQQFKLRPP-OH, the results for the Ki on Melanocortin receptor 4 (read-out: Ki) and at Melanocortin receptor 4 (read-out: pKi (converted)) were 262 nM and 257 nM, respectively.
For H-LFHYQQKQKPPGFKGAFQQFKLRPP-OH, the Ki at Melanocortin receptor 4 (read-out: Ki) was 75 nM; on Melanocortin receptor 4 (read-out: pKi (converted)), 72.4 nM.
With H-LFHYQQKQKPPGFKGEFQQFKLRPP-OH, on Melanocortin receptor 4 (read-out: Ki), the Ki turned out to be 203 nM.
Turning to H-LFHYQQKQKPPGFKGKFQQF-OH, the Ki on Melanocortin receptor 4 (read-out: Ki) is 55 nM; at Melanocortin receptor 4 (read-out: pKi (converted)), 53.7 nM.
Turning to H-LFHYQQKQKPPGFKGKFQQFKL-OH, the Ki on Melanocortin receptor 4 (read-out: Ki) was 29 nM; on Melanocortin receptor 4 (read-out: pKi (converted)), 27.5 nM.
Turning to H-LFHYQQKQKPPGFKGKFQQFKLR-OH, the Ki at Melanocortin receptor 4 (read-out: Ki) was 14 nM; on Melanocortin receptor 4 (read-out: pKi (converted)), 12.3 nM.
On to H-LFHYQQKQKPPGFKGKFQQFKLRPP-NH2, for which the values for the Ki on Melanocortin receptor 4 (read-out: Ki) and on Melanocortin receptor 4 (read-out: pKi (converted)) were 9 nM and 8.13 nM, respectively.
With H-YQQKQKPPGFKGKFQQFKLRPP-OH, the Ki was 1440 nM at Melanocortin receptor 4 (read-out: Ki) and 1320 nM at Melanocortin receptor 4 (read-out: pKi (converted)).
